Consider three compounds from publication PMC8605905 (Oxidative Medicine and Cellular Longevity, 2021).

In one data set the target is T1, ΔK280 tauRD protein (Homo sapiens, UniProt P10636, DEL597-597).
T1 construct: E. coli-derived ΔK280 tauRD protein; made in house; host or cells: E. coli
As to the kind of experiment: Thioflavin T assay of ΔK280 tauRD aggregation. It is filed as biochemical. The protocol:
The potential of Congo red and coumarin-chalcone derivatives in inhibiting tau misfolding was assessed using the E. coli-derived ΔK280 tauRD protein [21]. In brief, ΔK280 tauRD protein (20 μM) was incubated with the tested compound (1−10 μM) in buffer (150 mM NaCl, 20 mM Tris-HCl (pH 8.0)) at 37°C for 48 h to form aggregates. Thioflavin T (5 μM) was then added, and the mixture was incubated at room temperature for 25 min. The fluorescence intensity of the samples was measured, and the EC50 was computed as described.

Data set [1] relates to ∆K280 tauRD-DsRed SH-SY5Y cells. As to the kind of experiment: High content analysis of ΔK280 tauRD-DsRed fluorescence. As to conditions: for EC50: Homo sapiens, read-out: Extrapolated EC50 in inhibiting ∆K280 tauRD aggregation (DsRed fluorescence). In kind it is cell-based, Human. The protocol:
Human 293-derived Flp-In-293 cells (Invitrogen, Madison, WI, USA) were cultivated in Dulbecco's modified Eagle's medium (DMEM) containing 10% foetal bovine serum (FBS) (Thermo Fisher Scientific). Human neuroblastoma SH-SY5Y-derived Aβ-GFP [23] and ∆K280 tauRD-DsRed cells were kept in DMEM/nutrient mixture F12 (DMEM/F12) containing 10% FBS, 5 μg/ml blasticidin, and 100 μg/ml hygromycin (InvivoGen, San Diego, CA, USA). Doxycycline (Sigma-Aldrich) was applied to induce the expression of Aβ-GFP (5 μg/ml doxycycline) or ∆K280 tauRD-DsRed (2 μg/ml doxycycline).
(§1) On day 1, Aβ-GFP or ∆K280 tauRD-DsRed SH-SY5Y cells were seeded into 96-well plates (2.5 × 10^4/well) and treated with retinoic acid (10 μM; Sigma-Aldrich) to prompt neuronal differentiation. […] On day 8, cells were stained with Hoechst 33342 (0.1 μg/ml; Sigma-Aldrich) for 30 min, and cell images were automatically captured at excitation/emission wavelengths of 482/[…] (GFP fluorescence) or 543/593 nm (DsRed fluorescence) using a high content analysis (HCA) system (Micro Confocal High-Content Imaging System). Image Acquisition and Analysis Software (MetaXpress) (Molecular Devices, Sunnyvale, CA, USA) was used to analyse the images. CellROX Orange (5 μM; Molecular Probes, Eugene, OR, USA) (for Aβ-GFP cells) or dichloro-dihydro-fluorescein diacetate (DCFH-DA, 10 μM; Invitrogen) (for ∆K280 tauRD-DsRed cells) was added to the cells and incubated at 37°C for 30 min. The HCA system was used to measure intracellular ROS at 531/593 nm (CellROX Orange fluorescence) or 482/536 nm (DCFH-DA fluorescence) of excitation/emission wavelengths.

For data set [2] the test system is unchanged. The data set can be described thus: Real-time PCR of tauRD-DsRed RNA. It is filed as cell-based, Human. As to conditions: 10 μM. The protocol:
(§2) To measure the Aβ-GFP/tauRD-DsRed RNA expression on day 8, total RNA was extracted from collected cells and reverse-transcribed to cDNA (SuperScript III reverse transcriptase; Invitrogen, Waltham, MA, USA). Real-time quantitative PCR was performed using 100 ng of cDNA and the gene-specific TaqMan fluorogenic probe PN4331348 (EGFP) or customized Assays-by-Design probe for DsRed and 4326321E (HPRT1) (StepOnePlus Real-time PCR system, Applied Biosystems, Foster City, CA, USA). The RNA expression level was calculated using the formula 2^ΔCt, ΔCT = CT (control) − CT (target), in which CT indicates the cycle threshold.
A general note: In qPCR the cycle at which signal appears reflects the starting amount.

Data set [3] relates to caspase 1. As to the kind of experiment: Caspase 1 activity in ΔK280 tauRD-DsRed cells. The conditions noted are these: 10 μM, ∆K280 tauRD-DsRed cells. In kind it is cell-based, Human. The protocol: (§3) Aβ-GFP or ∆K280 tauRD-DsRed SH-SY5Y cells were seeded into 6-well plates (5 × 10^5/well) and treated with retinoic acid, coumarin-chalcone derivatives, and doxycycline as previously described. On day 8, cells were collected and lysates were prepared with six freeze/thaw cycles. The supernatant was collected by centrifugation, followed by measurement of the caspase 1 activity in 50 μg aliquots of cell extract using the ICE fluorometric assay kit (BioVision, Milpitas, CA, USA). Following incubation of the mixture at 37°C for 2 h, fluorescence was measured with excitation/emission wavelengths at 400/505 nm (FLx800 fluorescence microplate reader). In addition, the collected cells were lysed by sonication. Acetylcholinesterase (AChE) activity in the supernatant was determined in 10 μg aliquots of cell extracts using the AChE activity assay kit (Sigma-Aldrich) according to the manufacture's protocol. Finally, the absorbance at 412 nm was measured using a Multiskan GO spectrophotometer (Thermo Fisher Scientific).

Data set [4] deals with ∆K280 tauRD-DsRed SH-SY5Y cells. As to the kind of experiment: High content analysis of neurite outgrowth in ΔK280 tauRD-DsRed cells. It is filed as cell-based, Human. The conditions noted are these: 10 μM. The protocol: On day 1, Aβ-GFP or ∆K280 tauRD-DsRed SH-SY5Y cells were plated into 24-well plates (6 × 10^4/well) followed by addition of retinoic acid. On day 2, cells were treated with coumarin-chalcone derivatives (5 or 10 μM) and with doxycycline (5 or 2 μg/ml) to induce the expression of Aβ-GFP or ∆K280 tauRD-DsRed. On day 8, 4% paraformaldehyde, 0.1% Triton X-100, and 3% BSA were used to fix, permeabilize, and block cells, respectively. Subsequently, the cells were stained with TUBB3 (neuronal class III β-tubulin) primary antibody (1 : 1000; Covance, Princeton, NJ, USA) at 4°C overnight. Goat anti-rabbit Alexa Fluor 555 secondary antibody (1 : 1000; Thermo Fisher Scientific) was then added, followed by a 3 h incubation at room temperature. Following staining nuclei with 4′,-6-diamidino-2-phenylindole (DAPI) (0.1 μg/ml; Sigma-Aldrich), the neurons were imaged by using the HCA system and analysed by using the Neurite Outgrowth Application Module (MetaXpress; Molecular Devices).
To monitor the cAMP-mediated signal transduction pathway, CRE-GFP 293 cells in 6-well plates (1 × 10^6/well) were pretreated with kinase inhibitor H-89 (LC Laboratories, Woburn, MA, USA), KN-62 (Cayman Chemical, Ann Arbor, MI, USA), U0126 (LC Laboratories), or wortmannin (LC Laboratories) (10 μM) for 4 h before forskolin or LM-021 (10 μM) addition for 5 h. GFP fluorescence/protein and total/phosphorylated PKA, CaMKII, ERK, PI3K, and CREB levels were examined. In addition, Aβ-GFP or ∆K280 tauRD-DsRed SH-SY5Y cells were treated with retinoic acid (10 μM) on day 1, followed by the addition of LM-021 (5 or 10 μM) and doxycycline (5 or 2 μg/ml) on day 2, as described. Kinase inhibitors (10 μM) were added on day 6. On day 8, the cells were collected for protein expression analysis of BDNF, BCL2 (BCL2 apoptosis regulator), and BAX (BCL2 associated X, apoptosis regulator), and total/phosphorylated PKA, CaMKII, ERK, PI3K, and CREB. Also, cells were stained with DAPI and assessed for neurite outgrowth as described above.

Data set [5] in a line: DPPH radical-scavenging assay. The conditions noted are these: compounds 10–160 μM, 100 μM DPPH, 30 min, n = 3. The protocol:
Stable free radical 1,1-diphenyl-2-picrylhydrazyl (DPPH) (Sigma-Aldrich) was applied to test the potential radical-scavenging activity of the coumarin-chalcone derivatives. In brief, the compounds (10–160 μM) were added to an ethanol solution containing 100 μM DPPH. The mixture was vortexed for 15 sec, left to stand for 30 min at room temperature, and scavenging capacity was measured at a wavelength of 517 nm using a Multiskan GO microplate spectrophotometer (Thermo Fisher Scientific, Waltham, MA, USA).
(In general: The DPPH test is a chemical assay of radical scavenging.)

The next data set addresses T2, Aβ42 peptide (Homo sapiens, UniProt P05067).
T2 construct: containing Aβ42 peptide (5 μM); purchased AnaSpec; host or cells: synthetic
The data set can be described thus: Thioflavin T assay of Aβ aggregation. In kind it is biochemical. The conditions noted are these: Aβ42 5 μM, compound 5–20 μM, 37°C 48 h; read-out: Aβ aggregation inhibition EC50 (Thioflavin T). The protocol: In brief, the tested compound (5–20 μM) was added to a buffer solution (150 mM NaCl, 20 mM Tris-HCl (pH 8.0)) containing Aβ42 peptide (5 μM) and incubated at 37°C for 48 h. Thioflavin T (10 μM) (Sigma-Aldrich) then was added, and the mixture was incubated for 5 min at room temperature. Subsequently, the fluorescence intensity was quantified at 420/485 nm of excitation/emission wavelengths using a FLx800 microplate reader (Bio-Tek, Winooski, VT, USA). EC50 was computed as described.

Data set [6] has as its system Aβ-GFP SH-SY5Y cells. The data set can be described thus: High content analysis of Aβ-GFP fluorescence. It is filed as cell-based, Human. As to conditions: for EC50: Homo sapiens, read-out: EC50 in Aβ aggregation inhibition (GFP fluorescence); for Concentration significantly augmenting green fluorescence intensity (Aβ-GFP): day 8. The protocol:
Human neuroblastoma SH-SY5Y-derived Aβ-GFP [23] and ∆K280 tauRD-DsRed cells were kept in DMEM/nutrient mixture F12 (DMEM/F12) containing 10% FBS, 5 μg/ml blasticidin, and 100 μg/ml hygromycin (InvivoGen, San Diego, CA, USA). Doxycycline (Sigma-Aldrich) was applied to induce the expression of Aβ-GFP (5 μg/ml doxycycline) or ∆K280 tauRD-DsRed (2 μg/ml doxycycline).
On day 1, Aβ-GFP or ∆K280 tauRD-DsRed SH-SY5Y cells were seeded into 96-well plates (2.5 × 10^4/well) and treated with retinoic acid (10 μM; Sigma-Aldrich) to prompt neuronal differentiation. […] Image Acquisition and Analysis Software (MetaXpress) (Molecular Devices, Sunnyvale, CA, USA) was used to analyse the images. CellROX Orange (5 μM; Molecular Probes, Eugene, OR, USA) (for Aβ-GFP cells) or dichloro-dihydro-fluorescein diacetate (DCFH-DA, 10 μM; Invitrogen) (for ∆K280 tauRD-DsRed cells) was added to the cells and incubated at 37°C for 30 min.

Data set [7] has as its system Aβ-GFP SH-SY5Y cells. The data set can be described thus: ROS assay (CellROX Orange) in Aβ-GFP cells. In kind it is cell-based, Human. The conditions noted are these: tested 1.2–5 μM. The protocol:
as §1

Data set [8] deals with Aβ-GFP SH-SY5Y cells. As to the kind of experiment: Real-time PCR of Aβ-GFP RNA. The conditions noted are these: 5 μM. It is filed as cell-based, Human. The protocol:
as §2

Data set [9] relates to caspase 1. The data set can be described thus: Caspase 1 activity in Aβ-GFP cells. It is filed as cell-based, Human. As to conditions: 5 μM, vs untreated cells. The protocol: as §3
Data set [10] has as its system Acetylcholinesterase (AChE). As to the kind of experiment: AChE activity in Aβ-GFP cells. In kind it is cell-based. The conditions noted are these: 5 μM, vs untreated cells. The protocol:
as §3

Another data set in a line: physchem. The conditions noted are these: aqueous buffer. It is filed as physicochemical. The protocol:
The coumarin-chalcone derivatives (E)-4-hydroxy-3-(3-(p-tolyl)acryloyl)-2H-chromen-2-one (LM-016), (E)-3-(3-(4-(dimethylamino)phenyl)acryloyl)-4-hydroxy-2H-chromen-2-one (LM-021), and (E)-3-(3-(furan-2-yl)acryloyl)-4-hydroxy-2H-chromen-2-one (LM-022) were synthesized in our laboratory as previously described and examined by using NMR spectroscopy. The LM-016, LM-021, and LM-022 stayed soluble in cell culture medium at concentrations up to 100 μM.

The mark [11] stands for this setting: ∆K280 tauRD-DsRed SH-SY5Y cells, tested 2.5–10 μM.

Where two headings read alike, the source gives them in different places. Some results are limits rather than exact numbers.

T2 sequence (P05067 672-713 limits assumed): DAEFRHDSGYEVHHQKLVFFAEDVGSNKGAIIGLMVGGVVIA
T1 sequence (P10636 with tags, fused parts or gaps DEL597-597): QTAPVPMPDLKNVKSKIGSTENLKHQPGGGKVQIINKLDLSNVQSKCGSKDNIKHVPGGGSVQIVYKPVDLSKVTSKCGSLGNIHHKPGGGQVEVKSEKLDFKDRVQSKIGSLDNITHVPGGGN

What is called EC50 is the concentration at which the effect is half-maximal. On to `Nc1c(/N=N/c2ccc(-c3ccc(/N=N/c4cc(S(=O)(=O)O)c5ccccc5c4N)cc3)cc2)cc(S(=O)(=O)O)c2ccccc12` [Congo red, reference compound], for which the figures for the EC50 (at ΔK280 tauRD protein; in [1] (setting [11])) were 10 µM and 57 µM, respectively. Moreover, the “Concentration significantly elevating DsRed fluorescence intensity” value in data set [1] (tested 2.5–10 μM, day 8) is 10 µM. Besides, in [2], the “∆K280 tauRD-DsRed RNA level” value was “did not significantly alter”. In addition, the “Caspase 1 activity” value in the data set on caspase 1 [3] is reported as “lowered caspase 1 activity”. Further, the “Neurite length and branches” value in data set [4] is reported as “successfully ameliorated”.

Turning to `Cc1ccc(/C=C/C(=O)c2c(O)c3ccccc3oc2=O)cc1` [LM-016, (E)-4-hydroxy-3-(3-(p-tolyl)acryloyl)-2H-chromen-2-one], the EC50 in data set [5] is 126 µM; on Aβ42 peptide, 15 µM; in the data set on Aβ-GFP SH-SY5Y cells [6] (SH-SY5Y), 7 µM; in data set [1] (SH-SY5Y), 70 µM. In addition, the “Concentration significantly augmenting green fluorescence intensity (Aβ-GFP)” value with Aβ-GFP SH-SY5Y cells [6] (tested 1.2–5 μM) was in the range of 2.5 to 5 µM. The “Concentration effectively decreasing ROS levels caused by Aβ overexpression” value in the data set with Aβ-GFP SH-SY5Y cells [7] fell in the range of 2.5 to 5 µM. The “Aβ-GFP RNA levels” value in the data set on Aβ-GFP SH-SY5Y cells [8] is reported as “did not significantly modify”. Moreover, the “Caspase 1 activity” value in the data set with caspase 1 [9] was “reduced”. In addition, the AChE activity entry in [10] is “reduced”. For the same compound, in “physchem” (cell culture medium, read-out: Concentration up to which the compound stayed soluble), the solubility is ≥ 100 µM.

For the compound `O=C(/C=C/c1ccco1)c1c(O)c2ccccc2oc1=O` [LM-022, (E)-3-(3-(furan-2-yl)acryloyl)-4-hydroxy-2H-chromen-2-one], the EC50 in [5] was 143 µM; at Aβ42 peptide, 18 µM; with Aβ-GFP SH-SY5Y cells [6] (Aβ-GFP SH-SY5Y cells, tested 1.2–5 μM), 8.2 µM; in [1] (setting [11]) it was 73 µM. Also, the “Concentration significantly augmenting green fluorescence intensity (Aβ-GFP)” value with Aβ-GFP SH-SY5Y cells [6] (tested 1.2–5 μM) lay in the range of 2.5 to 5 µM. For the same compound, the “Concentration effectively decreasing ROS levels caused by Aβ overexpression” value with Aβ-GFP SH-SY5Y cells [7] is 2.5 to 5 µM. In addition, the “Aβ-GFP RNA levels” value in the data set with Aβ-GFP SH-SY5Y cells [8] was “did not significantly modify”. Also, in the data set “physchem”, the solubility is ≥ 100 µM.
